Test results: the NIST ThermoML archive (doi:10.1016/j.jct.2014.01.030)

Columns and labels:
[1] = xn = mol fraction of the nth substance listed; details: 101 kPa, Liquid, x1 = 1; for speed of sound: Sing-around technique in a fixed-path interferometer; for mass density: Vibrating tube method
[2] = Liquid; for speed of sound: Sing-around technique in a fixed-path interferometer; for mass density: Vibrating tube method; for viscosity: Capillary tube (Ostwald / Ubbelohde) method
[3] = refractive index (Na D-line) (dimensionless); details: 101.33 kPa, Liquid, Standard Abbe refractometry
[4] = molar heat capacity at constant pressure; details: 101.33 kPa, Liquid, Small sample (50 mg) DSC

CCO [ethanol] + CCn1cc[n+](C)c1.COS(=O)(=O)[O-]
[1]
Details | mass density [kg/m3] | speed of sound [m/s]
288.15 K | 794.04 | 1179
298.15 K | 785.52 | 1145
308.15 K | 776.87 | 1111

CCCO [propan-1-ol]
[2], 101 kPa
Details | mass density [kg/m3] | speed of sound [m/s]
288.15 K | 808.48 | 1243
298.15 K | 800.5 | 1208
308.15 K | 792.38 | 1174

Details | refractive index
[3], 298.15 K | 1.38286

CC(C)O [propan-2-ol]
[2], 101 kPa
Details | mass density [kg/m3] | speed of sound [m/s]
288.15 K | 790.01 | 1177
298.15 K | 781.67 | 1141
308.15 K | 773.03 | 1106

Details | refractive index
[3], 298.15 K | 1.37523

CCC(C)O (configuration not stated) [butan-2-ol] + CCn1cc[n+](C)c1.COS(=O)(=O)[O-]
[1]
Details | mass density [kg/m3] | speed of sound [m/s]
288.15 K | 810.96 | 1249
298.15 K | 802.82 | 1213
308.15 K | 794.34 | 1177

CCCO [propan-1-ol] + CCn1cc[n+](C)c1.COS(=O)(=O)[O-]
[1]
Details | mass density [kg/m3] | speed of sound [m/s]
288.15 K | 808.48 | 1243
298.15 K | 800.5 | 1208
308.15 K | 792.38 | 1174

CCCCCO [pentan-1-ol]
[2], 101 kPa
Details | mass density [kg/m3] | speed of sound [m/s]
288.15 K | 818.25 | 1310
298.15 K | 810.99 | 1276
308.15 K | 803.61 | 1243

Details | refractive index
[3], 298.15 K | 1.40774

CCn1cc[n+](C)c1.COS(=O)(=O)[O-] [1-ethyl-3-methylimidazolium methylsulfate]
[2], 101.33 kPa
Details | mass density [kg/m3] | speed of sound [m/s] | viscosity [mPa·s]
288.15 K | 1287.57 | 1781 | –
293.15 K | 1284.26 | 1768 | 85.22
298.15 K | 1280.81 | 1756 | 67.06
303.15 K | 1277.28 | 1744 | 54.39
308.15 K | 1273.97 | 1732 | 44.68
313.15 K | 1270.57 | 1720 | 37.1
318.15 K | 1267.18 | 1709 | 31.27
323.15 K | 1263.81 | 1697 | 26.81
328.15 K | 1260.45 | 1686 | 22.74
333.15 K | 1257.09 | 1675 | 19.71
338.15 K | 1253.75 | 1663 | 17.25
343.15 K | 1250.42 | 1652 | 15.16

Details | molar heat capacity at constant pressure, [4] [J/K/mol] | refractive index, [3]
288.15 K | 331.48 | –
293.15 K | – | 1.48252
298.15 K | 340.77 | 1.48125
303.15 K | – | 1.47998
308.15 K | 346.99 | 1.47868
313.15 K | – | 1.4774
318.15 K | – | 1.47612
323.15 K | – | 1.4748
328.15 K | – | 1.4735
333.15 K | – | 1.47218
338.15 K | – | 1.47086
343.15 K | – | 1.46954

CO [methanol] + CCn1cc[n+](C)c1.COS(=O)(=O)[O-]
[1]
Details | mass density [kg/m3] | speed of sound [m/s]
288.15 K | 796.46 | 1137
298.15 K | 787.1 | 1104
308.15 K | 777.64 | 1071

CCCCCO [pentan-1-ol] + CCn1cc[n+](C)c1.COS(=O)(=O)[O-]
[1]
Details | mass density [kg/m3] | speed of sound [m/s]
288.15 K | 818.25 | 1310
298.15 K | 810.99 | 1276
308.15 K | 803.61 | 1243

CO [methanol]
[2], 101 kPa
Details | mass density [kg/m3] | speed of sound [m/s]
288.15 K | 796.46 | 1137
298.15 K | 787.1 | 1104
308.15 K | 777.64 | 1071

Details | refractive index
[3], 298.15 K | 1.32649

CCC(C)O (configuration not stated) [butan-2-ol]
[2], 101 kPa
Details | mass density [kg/m3] | speed of sound [m/s]
288.15 K | 810.96 | 1249
298.15 K | 802.82 | 1213
308.15 K | 794.34 | 1177

Details | refractive index
[3], 298.15 K | 1.39487

CC(C)O [propan-2-ol] + CCn1cc[n+](C)c1.COS(=O)(=O)[O-]
[1]
Details | mass density [kg/m3] | speed of sound [m/s]
288.15 K | 790.01 | 1177
298.15 K | 781.67 | 1141
308.15 K | 773.03 | 1106

CCO [ethanol]
[2], 101 kPa
Details | mass density [kg/m3] | speed of sound [m/s]
288.15 K | 794.04 | 1179
298.15 K | 785.52 | 1145
308.15 K | 776.87 | 1111

Details | refractive index
[3], 298.15 K | 1.35907
